Test results as given in PMC12081684, “A three-dimensional high throughput assay identifies novel antibacterial molecules with activity against intracellular Shigella” (npj Antimicrobials and Resistance, 2025).
Read-outs that look alike come from different tables or passages of the source.

How the values were obtained:
[1] = test system: intracellular S. flexneri SF_nanoluc in Caco-2 cells on Cytodex 3 beads; experiment: microbe, parasite or virus in culture
Protocol: S. flexneri SF_nanoluc was grown overnight on a 50mgL^-1 kanamycin LB plate at 37 °C. Bacteria were scraped from the plate surface and sub-cultured in warm supplemented EMEM medium for 2 h (at 37 °C and 200 rpm) and diluted to get OD around 0.3 at 625 nm. Induction was performed in 500 ml or 1000 ml siliconized spinner flasks under closed culture conditions. 200 mg autoclaved Cytodex 3 beads (GE Healthcare), rehydrated with cation-free PBS (Sigma), were washed with supplemented EMEM medium and inoculated with 1.7 million Caco-2 cells/ml in half of the desired culture volume of the medium. The spinner vessel was kept static for 4 h in a humidified atmosphere of 5% CO2 at 37 °C, allowing Caco-2 cells to bind to beads. The remaining medium was added into the vessel and stirred at 32.5 rpm. The medium was changed every 72 h, and the induction was used on day 17 to ensure Caco-2 cells were fully differentiated.
Cell concentration induction was measured by NucleoCounter® NC-100™ (ChemoMetec Version 2.4). Cellular invasion was initiated by adding the bacterial stock into cell induction with optimal MOI, and the vessel was stationary for an hour before stirring at 22.5 rpm for 5 h in a humid atmosphere of 5% CO2 at 37 °C. After incubation, culture media was discarded by centrifugation; and a gentamicin protection assay was performed, in which cell beads were washed twice with a warm medium and EMEM containing gentamicin (100ug ml^-1) was added to the chamber of the system. The cell culture was incubated for 1 h with stirring and then washed three times with a warm medium before 25 μl of the invasive mixture was dispensed into each well. Plates were incubated for two days in a humid atmosphere of 5% CO2 at 37 °C before proceeding to develop the luminescent signal by adding 10 μl mixture of nanoluciferase substrate (Nano-Glo® Luciferase Assay System, N1130, Promega) into each well. After standing at room temperature for 30 min, luminescent signals were quantified by the Envision Reader (PerkinElmer) in focus luminescent mode. For the bacterial tracking, we used the green fluorescent protein in S. flexneri ATCC 12022GFP to monitor the invasion.
The HTS assay was performed in 384-well black clear-bottom plates (Greiner). Screening compounds were prepared with an appropriate DMSO concentration (0.5% in cell-based assay). Every assay plate contained 16 wells of DMSO as negative controls and 16 wells of moxifloxacin at a final concentration of 20 μM as positive controls. These controls were used to monitor assay quality through determination of Z’ factor as well as normalizing the data on a per-plate basis.
To assess the quality of the dose-response assay, 11 commercially available antimicrobials were used to evaluate the reliability of the HTS assay. The percentage of coefficient of variation (CV%) was calculated by accessing the IC50 (μM) deviation of selected positive controls. Intra-assay reproducibility was determined by comparing the IC50 that were generated in the same run of the two replicates. Inter-assay reproducibility was assessed by comparing the IC50 generated by two replicates of each day over two days. Intra-assay %CV should be <10%, while inter-assay %CV should be <15%. To validate the HTS assay configuration, a set of 10 thousand compounds was assayed in 384-well plates at a final concentration of 10 μM. Assay were run in duplicate and confirmed if needed, a validation data was assessed to analyse the pros and cons of the whole procedure.
Following screening, all non-novel structures were removed, and the remaining compounds were subjected to a dose response (DR) assay, which was set as 3-fold serial dilution started at 100uM each compound.
The raw data of the plate reader was imported and analysed in ActivityBase and Spotfire version 10.3.1.18 (TIBCO).

HepG2 cells = experiment: In vitro cytotoxicity on HepG2 cells; format: cell-based; conditions: for IC50: Homo sapiens
Excerpt: Upon chemical review, the 15 hit compounds were reorganized based on structure similarity into 13 clusters. Two chemicals were considered as a series, and the remaining 11 clusters were singletons (Fig. 3). […] Four of the 15 structures carried an NO2 moiety, including two hits of Series 1, one hit of Series 2, and Singleton 7. Although the antibacterial activity of nitro-containing molecules is known to be broad, nitro groups have been extensively associated with mutagenicity and genotoxicity.

[2] = Experimental Chromlog / ChromLogD pH7.4 and PFI; format: physicochemical; conditions: for Chromlog pH7.4 (Expt): pH7.4, experimental
CAD solubility = format: physicochemical; conditions: Table 1
[3] = Shigella flexneri, Caco-2, read-out: IC50 T1, 1st Batch, replicate T1
[4] = Shigella flexneri, Caco-2, read-out: IC50 T2, 1st Batch, replicate T2
[5] = Shigella flexneri, Caco-2, read-out: IC50 T3, 2nd Batch, replicate T3
[6] = Shigella flexneri, Caco-2, read-out: IC50 T4, 2nd Batch, replicate T4
[7] = Shigella flexneri, Caco-2, read-out: Caco2 IC50 (μM), Table 1, 3-D Caco-2 beads, intracellular S. flexneri
[8] = Shigella flexneri, Caco-2, read-out: Caco2 pIC50, Table 1 (converted), 3-D Caco-2 beads, intracellular S. flexneri
[9] = HepG2, Table 1, read-out: HepG2 pIC50 (converted)
[10] = HepG2, read-out: HepG2 pIC50, Table 1 (converted)
[11] = HepG2, Supplementary table 8, read-out: HepG2 pIC50 (converted)

SMILES	IC50 [1, 3]	IC50 [1, 4]	IC50 [1, 5]	IC50 [1, 6]	IC50 [1, 7]	IC50 [1, 8]	Chromlog pH7.4 (Expt) [2]	Selectivity (log) Caco pIC50 vs Cytotox ([1]; Caco-2)	Selectivity (log) Caco pIC50 vs cytox ([1]; Caco-2)	CAD sol (CAD solubility)	further results
CC[C@H]1OC(=O)[C@H](C)[C@@H](O[C@H]2C[C@@](C)(OC)[C@@H](O)[C@H](C)O2)[C@H](C)[C@@H](O[C@@H]2O[C@H](C)C[C@H](N(C)C)[C@H]2O)[C@](C)(O)C[C@@H](C)CN(C)[C@H](C)[C@@H](O)[C@]1(C)O [Azithromycin, reference compound]	0.569 µM	0.51 µM	0.624 µM	0.624 µM							
CO/N=C(\C(=O)N[C@@H]1C(=O)N2C(C(=O)O)=C(CSc3nc(=O)c(=O)[nH]n3C)CS[C@H]12)c1csc(N)n1 [Ceftriaxone, reference compound]	0.0151 µM	0.0151 µM	0.0196 µM	0.0196 µM							
CN1C(=O)[C@H](NC(=O)NCc2ccccc2)N=C(c2ccccc2)c2ccccc21 [Compound 5]					19.1 µM	19.1 µM					Selectivity (log) Caco pIC50 vs Cytotox ([1]; Supplementary table 8, vs HepG2): > 0.72 log; Selectivity (log) Caco pIC50 vs cytox ([1]; Table 1, Caco2 pIC50 vs HepG2 pIC50): >0.72 log; IC50 (HepG2 cells; [9]): > 100000 nM
CCn1c(-c2nonc2N)nc2c(-c3cccc(Cl)c3)ncc(C(O)c3ccn(C)n3)c21 (centres unmarked) [Compound 7]					3.24 µM	3.24 µM	4.75	> 1.49 log	>1.49 log	10 µg/mL	IC50 (HepG2 cells; [9]): > 100000 nM
COc1ccc(C2Nc3nc4ccccc4n3C(C)=C2C(=O)Nc2ccccc2)cc1 (centres unmarked) [Compound 8]					22.9 µM	22.9 µM	4.77	0.38 log	0.38 log	10 µg/mL	HepG2 cytotoxicity (in words) (HepG2 cells): exhibit HepG2 cytotoxicity; IC50 (HepG2 cells; [9]): 55000 nM
N#Cc1cnn2c1[nH]c(=O)c1sc(-c3ccccc3)cc12 [Compound 9]					19.9 µM	20 µM	2.5	0.58 log	0.58 log	17 µg/mL	IC50 ([1]; Shigella flexneri, Caco-2, read-out: Caco2 pIC50, printed in Fig. 3 (converted)): 2 µM; IC50 (HepG2 cells; [9]): 75900 nM
CC(=O)c1csc(-c2csc(C)n2)n1 [Compound 10]					8.51 µM	8.51 µM		1.07 log	1.07 log		IC50 (HepG2 cells; [10]): > 100000 nM
NC(=O)c1ccccc1Oc1ccc(Cl)cc1[N+](=O)[O-] [Compound 11]								0.61 log			IC50 ([1]; Shigella flexneri, Caco-2, read-out: Caco2 pIC50, Supplementary table 8 (converted)): 5.75 µM; HepG2 cytotoxicity (in words) (HepG2 cells): exhibit HepG2 cytotoxicity; IC50 (HepG2 cells; [11]): 23400 nM
CC(C)c1noc2ncc(C(=O)c3ccccc3O)cc12 [Compound 12]					1.59 µM	1.58 µM	6.05	1.80 log	1.80 log	44 µg/mL	PFI (Expt) ([2]; experimental): 9.05; IC50 (HepG2 cells; [11]): > 100000 nM; IC50 (HepG2 cells; [10]): > 10000 nM
COc1ccc2c(CC(=O)NC(c3ccc(Cl)cc3)C3CC3)coc2c1 (centres unmarked) [Compound 13]					24.6 µM	24.5 µM	6.43	> 0.61 log	>0.61 log	53 µg/mL	IC50 (HepG2 cells; [11]): > 100000 nM; IC50 (HepG2 cells; [10]): > 1000 nM
Cc1nn(-c2ccccc2)c(C)c1NC(=O)CN1C(=O)NC(C)(c2ccco2)C1=O (centres unmarked) [Compound 14]					24.6 µM	24.5 µM	2.93	> 0.61 log	>0.61 log	>106 µg/mL	IC50 (HepG2 cells; [11]): > 100000 nM; IC50 (HepG2 cells; [10]): > 100 nM
CC(=O)c1cccc(NC(=O)Nc2ccc(S(=O)(=O)Nc3cc(C)on3)cc2)c1 [Compound 15]					17.4 µM	17.4 µM	2.04	> 0.76 log	>0.61 log	>149 µg/mL	IC50 (HepG2 cells; [11]): > 100000 nM; IC50 (HepG2 cells; [10]): > 10 nM
C[C@@H](O)[C@H]1C(=O)N2C(C(=O)O)=C([C@H]3CCCO3)S[C@H]12 [Faropenem, reference compound]	1.3 µM	1.23 µM	1.43 µM	1.44 µM							
CNC(C)C1CCC(N)C(OC2C(N)CC(N)C(OC3OCC(C)(O)C(NC)C3O)C2O)O1 (centres unmarked) [Gentamicin, reference compound]	1.52 µM	1.27 µM	1.17 µM	1.24 µM							
C[C@@H](O)[C@H]1C(=O)N2C(C(=O)O)=C(S[C@@H]3CN[C@H](C(=O)N(C)C)C3)[C@H](C)[C@H]12 [Meropenem, reference compound]	0.349 µM	0.365 µM	0.404 µM	0.399 µM							
COc1ccc(-c2ccn(CC[C@](C)(C(=O)NO)S(C)(=O)=O)c(=O)c2)c(F)c1 [PF5081090, reference compound]											IC50 ([1]; read-out: IC50 T1, 1st Batch, replicate T1): 0.0957 µM; IC50 ([1]; read-out: IC50 T2, 1st Batch, replicate T2): 0.0919 µM; IC50 ([1]; read-out: IC50 T3, 2nd Batch, replicate T3): 0.0937 µM; IC50 ([1]; read-out: IC50 T4, 2nd Batch, replicate T4): 0.0938 µM
CN(C)[C@@H]1C(O)=C(C(N)=O)C(=O)[C@@]2(O)C(O)=C3C(=O)c4c(O)cccc4[C@@](C)(O)[C@H]3C[C@@H]12 [Tetracycline, reference compound]	1.61 µM	1.56 µM	1.19 µM	1.18 µM							
